Reference: patent US8436030B2, “Polymorphic forms of deferasirox (ICL670A)” (Navartis AG, priority 2006, dated 2013)

Assay: Solubility of solid forms (comparative statement)
Assay type: physicochemical
Conditions: as compared to the crystalline form A or B

## O=C(O)c1ccc(-n2nc(-c3ccccc3O)nc2-c2ccccc2O)cc1 [amorphous form, 4-[3,5-bis(2-hydroxyphenyl)-[1,2,4]triazol-1-yl]benzoic acid]
  solubility: highest solubility
